Reference: US20140287048A1, “PASTE COMPRISING NON-STEROIDAL ANTI-INFLAMMATORY DRUG” (priority 2011, published 2014)

Experiment: in vivo
Details: po

bioavailability: ~98%
Structure (SMILES): Cc1cnc(NC(=O)C2=C(O)c3ccccc3S(=O)(=O)N2C)s1 [meloxicam]
